The text below walks through data of ChEMBL document CHEMBL1629425, “Antibacterial prenylated acylphloroglucinols from the fern Elaphoglossum yungense” (2010).

As usually defined, the MBC is the lowest tested concentration that kills the bacteria rather than only halting them. Higher therefore signals less potent killing. By MIC is commonly meant the least concentration at which growth counts as inhibited. A lower MIC goes with a more susceptible organism.

In brackets after ≈: the same amount, converted by molar mass. Activity calls are given as the source filed them. No cut-off for these calls is given here. A value given as a limit tells only on which side of the number the result lay.

Test [1] relates to Staphylococcus aureus. Kind of test: Antibacterial activity against Staphylococcus aureus ATCC 6738 after 24 hrs by Broth micro dilution method. The settings on record: ATCC 6738, 24 h. The class given is functional.
Test [2] concerns Pseudomonas aeruginosa. Nature of the test: Antibacterial activity against Pseudomonas aeruginosa ATCC 27853 assessed as growth inhibition at 10 ug/ml after 24 hrs by Broth micro dilution method relative to control. The class given is functional. The settings on record: ATCC 27853, 24 h, read-out: GI.
Test [3] deals with Pseudomonas aeruginosa. Nature of the test: Antibacterial activity against Pseudomonas aeruginosa ATCC 27853 after 24 hrs by Broth micro dilution method. In kind it is functional. The conditions noted are these: ATCC 27853, 24 h.
In test [4] the test system is Staphylococcus aureus. Nature of the test: Antibacterial activity against Staphylococcus aureus ATCC 6738 assessed as growth inhibition at 10 ug/ml after 24 hrs by Broth micro dilution method relative to control. The settings on record: ATCC 6738, 24 h, read-out: GI. In kind it is functional.
Test [5] deals with Staphylococcus aureus. Kind of test: increase in biofilm formation of Staphylococcus aureus ATCC 6738 at 10 ug/ml relative to control. In kind it is functional, organism-based.

On to `CCCC(=O)c1c(O)c(CC=C(C)C)c(O)c(CC2=C(O)C(C)(C/C=C(\C)CCC=C(C)C)C(O)=C(C(C)=O)C2=O)c1O` (stereo not given) [YUNGENSIN D], for which the MBC against Staphylococcus aureus [1] was over 200 µg/mL; with Pseudomonas aeruginosa [3] it was 100 µg/mL (≈ 168 µM). The MIC in the test with Staphylococcus aureus [1] was determined as 100 µg/mL (≈ 168 µM); against Pseudomonas aeruginosa [3], 50 µg/mL (≈ 84.1 µM). The inhibition of growth at 10 µg/mL in the test with Pseudomonas aeruginosa [2] is 86%; in the test with Staphylococcus aureus [4], 83%.
Turning to `CCCC(=O)c1c(O)c(CC2=C(O)C(C)(C/C=C(\C)CCC=C(C)C)C(O)=C(C(C)=O)C2=O)c(O)c2c1OC(C)(C)C=C2` (stereo not given) [YUNGENSIN A], the MBC against Staphylococcus aureus [1] and in the test with Pseudomonas aeruginosa [3] was 50 µg/mL (≈ 84.4 µM) throughout. The MIC in the test on Staphylococcus aureus [1] and with Pseudomonas aeruginosa [3] was 10 µg/mL (≈ 16.9 µM) in each case. In addition, the inhibition of growth at 10 µg/mL with Pseudomonas aeruginosa [2] and with Staphylococcus aureus [4] was 99% each time. Moreover, in the test on Staphylococcus aureus [5], the outcome was inactive.
Take `CCCC(=O)c1c(O)c(C/C=C(\C)CCC=C(C)C)c(O)c(CC2=C(O)C(C)(C/C=C(\C)CCC=C(C)C)C(O)=C(C(C)=O)C2=O)c1O` (stereo not given) [YUNGENSIN E]: the MBC in the test with Staphylococcus aureus [1] and in the test on Pseudomonas aeruginosa [3] was 200 µg/mL (≈ 302 µM) throughout. For the same compound, the MIC in the test with Staphylococcus aureus [1] and in the test on Pseudomonas aeruginosa [3] was 100 µg/mL (≈ 151 µM) in each case. The inhibition of growth at 10 µg/mL in the test with Pseudomonas aeruginosa [2] and in the test on Staphylococcus aureus [4] was 87% each time. For the same compound, the result in the test with Staphylococcus aureus [5] was inactive.
On to `CCCC(=O)c1c(O)c2c(c(CC3=C(O)C(C)(C/C=C(\C)CCC=C(C)C)C(O)=C(C(C)=O)C3=O)c1O)OC(C)(C)C=C2` (stereo not given) [YUNGENSIN F], for which the MBC in the test with Staphylococcus aureus [1] is 100 µg/mL (≈ 169 µM); in the test on Pseudomonas aeruginosa [3] it was 50 µg/mL (≈ 84.4 µM). Besides, the MIC in the test on Staphylococcus aureus [1] and in the test on Pseudomonas aeruginosa [3] was 50 µg/mL (≈ 84.4 µM) each time. The inhibition of growth at 10 µg/mL was found to be 86% with Pseudomonas aeruginosa [2] and 93% in the test on Staphylococcus aureus [4]. Further, the result in the test with Staphylococcus aureus [5] was inactive.
As for `CCCC(=O)c1c(O)c(CC2=C(O)C(C)(C/C=C(\C)CCC=C(C)C)C(O)=C(C(C)=O)C2=O)c(O)c2c1OC(C)(CCC=C(C)C)C=C2` (stereo not given) [YUNGENSIN C], the figures for the MBC with Staphylococcus aureus [1] and against Pseudomonas aeruginosa [3] were 100 µg/mL (≈ 151 µM) and 50 µg/mL (≈ 75.7 µM), respectively. In addition, the MIC with Staphylococcus aureus [1] and in the test on Pseudomonas aeruginosa [3] was 50 µg/mL (≈ 75.7 µM) throughout. In addition, the inhibition of growth at 10 µg/mL in the test on Pseudomonas aeruginosa [2] turned out to be 87%; with Staphylococcus aureus [4], 92%.
As to `CCCCCC(=O)c1c(O)c(CC2=C(O)C(C)(C/C=C(\C)CCC=C(C)C)C(O)=C(C(C)=O)C2=O)c(O)c2c1OC(C)(C)C=C2` (stereo not given) [YUNGENSIN B], the MBC in the test on Staphylococcus aureus [1] came to 100 µg/mL (≈ 161 µM); in the test on Pseudomonas aeruginosa [3], 50 µg/mL (≈ 80.5 µM). The MIC against Staphylococcus aureus [1] and with Pseudomonas aeruginosa [3] was 10 µg/mL (≈ 16.1 µM) each time. Further, the inhibition of growth at 10 µg/mL with Pseudomonas aeruginosa [2] and in the test on Staphylococcus aureus [4] was 99% throughout. The result in the test with Staphylococcus aureus [5] was inactive.
